Laboratory results published in the supplement of paper PMC4862054.
Where “and” joins values, the source holds several entries; their conditions need not be identical. Equal values may be shown once.

How the values were obtained:
Conditions in all cases: incubation time: 72 h
[1] = test system: HCC1599; test: drug sensitivity score (DSS), CellTiter-Blue viability (DSS (AUC-based score)); higher = stronger viability inhibition; extreme values may be limits of the assay
Procedure: (§1)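 DSRT with the CellTiter-Blue (resazurin reduction) viability readout, fluorescence 560/590 nm, 72 h incubation. Plates were normalised to DMSO and benzethonium chloride controls. DSS is computed from the area under the fitted dose-response curve (5 or 9 concentrations).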

[2] = test system: CAL-51; test: as above
Procedure: as §1

[3] = test system: MFM-223; test: as above
Procedure: as §1

[4] = test system: CAL-85-1; test: as above
Procedure: as §1

[5] = test system: SK-BR-3; test: as above
Procedure: as §1

[6] = test system: MDA-MB-468; test: as above
Procedure: as §1

[7] = test system: BT-474; test: as above
Procedure: as §1

[8] = test system: HCC1937; test: as above
Procedure: as §1

[9] = test system: DU-4475; test: as above
Procedure: as §1

[10] = test system: MDA-MB-453; test: as above
Procedure: as §1

[11] = test system: BT-549; test: as above
Procedure: as §1

[12] = test system: CAL-120; test: as above
Procedure: as §1

[13] = test system: MDA-MB-436; test: as above
Procedure: as §1

[14] = test system: MDA-MB-231; test: as above
Procedure: as §1

[15] = test system: HCC1143; test: as above
Procedure: as §1

[16] = test system: CAL-148; test: as above
Procedure: as §1

[17] = test system: HDQ-P1; test: as above
Procedure: as §1

[18] = test system: Hs578T; test: as above
Procedure: as §1

[19] = test system: CAL-51; test: normalised viability (% of control), CellTiter-Blue; higher = more viable cells (about 100 = DMSO control)
Procedure: (§2)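 DSRT, CellTiter-Blue viability, 72 h incubation. Signal is normalised to DMSO and benzethonium chloride controls. Value is the normalised response at dose 9.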

[20] = test system: MDA-MB-453; test: as above
Procedure: as §2

[21] = test system: CAL-51; test: as above; remark: listed apart in the source
Procedure: (§3)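 DSRT, CellTiter-Blue viability, 72 h incubation. Signal is normalised to DMSO and benzethonium chloride controls. Value is the normalised response at dose 8.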

[22] = test system: CAL-85-1; test: as above
Procedure: as §3

[23] = test system: DU-4475; test: as above
Procedure: as §3

[24] = test system: MDA-MB-453; test: as above; remark: listed apart in the source
Procedure: as §3

[25] = test system: CAL-148; test: as above
Procedure: as §3

[26] = test system: HDQ-P1; test: as above
Procedure: as §3

CNNCc1ccc(C(=O)NC(C)C)cc1 [Procarbazine]
drug sensitivity score [1]: 0
drug sensitivity score [2]: 0
drug sensitivity score [3]: 0
drug sensitivity score [4]: 0
drug sensitivity score [5]: 0
drug sensitivity score [6]: 0
drug sensitivity score [7]: 0
drug sensitivity score [8]: 0
drug sensitivity score [9]: 0
drug sensitivity score [10]: 0
drug sensitivity score [11]: 0
drug sensitivity score [12]: 0
drug sensitivity score [13]: 0.866
drug sensitivity score [14]: 0
drug sensitivity score [15]: 0
drug sensitivity score [16]: 0
drug sensitivity score [17]: 0
drug sensitivity score [18]: 0
normalised viability ([19]; 10000 nM): 102%
normalised viability ([20]; 10000 nM): 110%
normalised viability ([21]; 3000 nM): 98.8%
normalised viability ([22]; 3000 nM): 95.7%
normalised viability ([23]; 3000 nM): 100%
normalised viability ([24]; 3000 nM): 102%
normalised viability ([25]; 3000 nM): 101%
normalised viability ([26]; 3000 nM): 127%

COc1ccc(-c2ccc3c(N4CCOC[C@@H]4C)nc(N4CCOC[C@@H]4C)nc3n2)cc1CO [AZD8055]
drug sensitivity score [1]: 14.5
drug sensitivity score [2]: 28.8
drug sensitivity score [3]: 27.6
drug sensitivity score [4]: 23.6
drug sensitivity score [5]: 28.6
drug sensitivity score [6]: 16.8
drug sensitivity score [7]: 20
drug sensitivity score [8]: 21.7
drug sensitivity score [9]: 20.9
drug sensitivity score [10]: 29
drug sensitivity score [11]: 22.4
drug sensitivity score [12]: 25
drug sensitivity score [13]: 15.6
drug sensitivity score [14]: 21.4
drug sensitivity score [15]: 18.1
drug sensitivity score [16]: 28
drug sensitivity score [17]: 23.9
drug sensitivity score [18]: 23.6
normalised viability ([19]; 10000 nM): 6.13%
normalised viability ([20]; 10000 nM): 12.2%
normalised viability ([21]; 3000 nM): 10.5%
normalised viability ([22]; 3000 nM): 18.6%
normalised viability ([23]; 3000 nM): 14.1%
normalised viability ([24]; 3000 nM): 14.6%
normalised viability ([25]; 3000 nM): 5.57%
normalised viability ([26]; 3000 nM): 21.8%

CN1CCN(CCOc2cc(OC3CCOCC3)c3c(Nc4c(Cl)ccc5c4OCO5)ncnc3c2)CC1 [Saracatinib]
drug sensitivity score [1]: 0.195
drug sensitivity score [2]: 8.13
drug sensitivity score [3]: 0
drug sensitivity score [4]: 9.72
drug sensitivity score [5]: 3.37
drug sensitivity score [6]: 4.05
drug sensitivity score [7]: 5.44
drug sensitivity score [8]: 0
drug sensitivity score [9]: 0
drug sensitivity score [10]: 4.51
drug sensitivity score [11]: 5
drug sensitivity score [12]: 4.64
drug sensitivity score [13]: 0.375
drug sensitivity score [14]: 7.77
drug sensitivity score [15]: 0
drug sensitivity score [16]: 1.9
drug sensitivity score [17]: 11.5
drug sensitivity score [18]: 0
normalised viability ([19]; 10000 nM): 38.4%
normalised viability ([20]; 10000 nM): 35.6%
normalised viability ([21]; 3000 nM): 45%
normalised viability ([22]; 3000 nM): 29.1%
normalised viability ([23]; 3000 nM): 120%
normalised viability ([24]; 3000 nM): 60.9%
normalised viability ([25]; 3000 nM): 65.9%
normalised viability ([26]; 3000 nM): 20.3%

CC[C@]1(O)C[C@H]2CN(CCc3c([nH]c4ccccc34)[C@@](C(=O)OC)(c3cc4c(cc3OC)N(C=O)[C@H]3[C@@](O)(C(=O)OC)[C@H](OC(C)=O)[C@]5(CC)C=CCN6CC[C@]43[C@@H]65)C2)C1 [Vincristine]
drug sensitivity score [1]: 6.95 and 15.8
drug sensitivity score [2]: 17.5 and 26.3
drug sensitivity score [3]: 16.9 and 22.7
drug sensitivity score [4]: 17.9 and 25
drug sensitivity score [5]: 33.6 and 41.1
drug sensitivity score [6]: 23.8 and 23.7
drug sensitivity score [8]: 23.5 and 35
drug sensitivity score [9]: 18.9 and 28.9
drug sensitivity score [10]: 19.7 and 30.5
drug sensitivity score [11]: 25.5 and 32
drug sensitivity score [12]: 27.8 and 35.7
drug sensitivity score [13]: 18 and 21
drug sensitivity score [14]: 27 and 34.4
drug sensitivity score [15]: 22.6 and 27.4
drug sensitivity score [16]: 23 and 26.8
drug sensitivity score [17]: 17.8 and 20.6
drug sensitivity score [18]: 26.5 and 37.7
normalised viability ([19]; 1000 nM): 11.7%
normalised viability ([19]; 10000 nM): 10.7%
normalised viability ([20]; 1000 nM): 38.5%
normalised viability ([20]; 10000 nM): 41.6%
normalised viability ([21]; 300 nM): 17.2%
normalised viability ([21]; 3000 nM): 10.4%
normalised viability ([22]; 300 nM): 40.6%
normalised viability ([22]; 3000 nM): 38.1%
normalised viability ([23]; 300 nM): 14.8%
normalised viability ([23]; 3000 nM): 6.84%
normalised viability ([24]; 300 nM): 36%
normalised viability ([24]; 3000 nM): 30.5%
normalised viability ([25]; 300 nM): 20.4%
normalised viability ([25]; 3000 nM): 26.8%
normalised viability ([26]; 300 nM): 36.6%
normalised viability ([26]; 3000 nM): 38.9%

C/C(=C\c1csc(C)n1)[C@@H]1C[C@@H]2O[C@]2(C)CCC[C@H](C)[C@H](O)[C@@H](C)C(=O)C(C)(C)[C@@H](O)CC(=O)O1 [Patupilone]
drug sensitivity score [1]: 1.08
drug sensitivity score [2]: 20.4
drug sensitivity score [3]: 12.7
drug sensitivity score [4]: 24.6
drug sensitivity score [5]: 23.7
drug sensitivity score [6]: 15.3
drug sensitivity score [7]: 18.2
drug sensitivity score [8]: 27
drug sensitivity score [9]: 22.3
drug sensitivity score [10]: 22.5
drug sensitivity score [11]: 22.4
drug sensitivity score [12]: 19.8
drug sensitivity score [13]: 15.4
drug sensitivity score [14]: 28.5
drug sensitivity score [15]: 16.3
drug sensitivity score [16]: 24.8
drug sensitivity score [17]: 12.2
drug sensitivity score [18]: 23.1
normalised viability ([19]; 1000 nM): 13.6%
normalised viability ([20]; 1000 nM): 20.9%
normalised viability ([21]; 300 nM): 12.7%
normalised viability ([22]; 300 nM): 26.8%
normalised viability ([23]; 300 nM): 7.32%
normalised viability ([24]; 300 nM): 20.4%
normalised viability ([25]; 300 nM): 17.6%
normalised viability ([26]; 300 nM): 41%

CCCCCCCCc1ccc(CCC(N)(CO)CO)cc1 [Fingolimod]
drug sensitivity score [1]: 0
drug sensitivity score [2]: 0
drug sensitivity score [3]: 3.93
drug sensitivity score [4]: 2.9
drug sensitivity score [5]: 4.64
drug sensitivity score [6]: 5.1
drug sensitivity score [7]: 4.46
drug sensitivity score [8]: 5.93
drug sensitivity score [9]: 0
drug sensitivity score [10]: 3.02
drug sensitivity score [11]: 6.99
drug sensitivity score [12]: 5.43
drug sensitivity score [13]: 8.37
drug sensitivity score [14]: 7.64
drug sensitivity score [15]: 0
drug sensitivity score [16]: 0
drug sensitivity score [17]: 3.07
drug sensitivity score [18]: 5.16
normalised viability ([19]; 10000 nM): 91.8%
normalised viability ([20]; 10000 nM): 2.6%
normalised viability ([21]; 3000 nM): 109%
normalised viability ([22]; 3000 nM): 91.7%
normalised viability ([23]; 3000 nM): 117%
normalised viability ([24]; 3000 nM): 95.2%
normalised viability ([25]; 3000 nM): 88.8%
normalised viability ([26]; 3000 nM): 95%

Cc1cc2c(C(C)C)c(O)c(O)c(C=O)c2c(O)c1-c1c(C)cc2c(C(C)C)c(O)c(O)c(C=O)c2c1O [Gossypol]
normalised viability ([19]; 100000 nM): 2.71%
normalised viability ([20]; 100000 nM): 2.75%
normalised viability ([21]; 30000 nM): 3.25%
normalised viability ([22]; 30000 nM): 5.42%
normalised viability ([23]; 30000 nM): 4.25%
normalised viability ([24]; 30000 nM): 5.68%
normalised viability ([25]; 30000 nM): 7.03%
normalised viability ([26]; 30000 nM): 4.62%
